From article PMC11583597, “Brain uptake pharmacokinetics of albiglutide, dulaglutide, tirzepatide, and DA5-CH in the search for new treatments of Alzheimer’s and Parkinson’s diseases” (Tissue Barriers, 2023)

Assays:
[1] = parameters: species or system male CD-1 mice; conditions: mouse, in vivo, iv
Procedure: Anesthetized mice were co-injected iv with 3 × 10^5 cpm-1×10^6 cpm ^125I/^14C-IRA and 5 × 10^5 cpm of ^99mTc-Alb in 0.2 ml BSA-LR with or without 1 μg of the non-radioactive IRA. Fifteen minutes after iv injection, blood was collected from the right carotid artery, and the whole brain was removed and weighed. Samples were counted for radioactivity. Results were expressed as delta B/S ratios in units of μl/g.

[2] = Brain influx and initial volume of distribution (multiple-time regression analysis); parameters: species or system male CD-1 mice; conditions: mouse, in vivo, iv
Procedure: Following anesthetization, the jugular vein and right carotid artery were exposed. Mice were given a jugular vein injection of 0.2 ml BSA-LR containing 3 × 10^5 cpm-1×10^6 cpm of an ^125I/^14C-labeled IRA and 5 × 10^5 cpm of ^99mTc-Alb. Blood samples were collected from the carotid artery at various time points from 1 to 60 min after iv injection (see Figure 1). Mice were then decapitated, and their brains were removed and weighed. After clotting, the arterial blood was centrifuged at 3200 ×g for 10 min. Levels of radioactivity in serum (50 μl) and brain were measured in a gamma counter for ^125I and ^99mTc for 3 min. After ^99mTc decay, ^14C-DA5-CH samples were solubilized with Solvable (Sigma), transferred to scintillation vials containing Ecoscint (National Diagnostics) and ^14C was measured in a beta counter. Sample injection checks were taken throughout the course of the study to calculate the mean injected cpm/mouse. To determine the rate of ^125I/^14C-IRA clearance from the serum, the results were expressed as the percentage of an injected dose in each ml of serum (%Inj/ml), which was calculated by dividing the cpm in a ml of serum (cpm/ml serum) by the cpm injected into the mouse (cpm/Inj):
To calculate the blood-to-brain unidirectional influx constant (Ki), multiple-time regression analysis was used as first described by Patlak, Blasberg, and Fenstermacher.[67],[68] The brain/serum (B/S) ratios (μl/g) of the ^125I/^14C-IRA in each gram of brain were calculated from the data in Section 2.6 and plotted against their respective exposure times as previously applied by Rhea et al. 2018.[69] Exposure time differs from clock time in that exposure time corrects for clearance of the ^125I/^14C-IRA from blood and thus, better represents the amount of ^125I/^14C-IRA available for BBB transport at any given time. Delta B/S ratios were calculated by subtracting the vascular space as measured by the B/S ratio for ^99mTc-Alb from the B/S ratio for the respective ^125I/^14C-IRA. Thus, delta B/S ratios represent material that has been taken up by or has crossed the BBB. The slope of the linear portion of the relation between delta B/S ratios and exposure time defines Ki (μl/g-min) and is reported with its error term. This represents Model 1 for DA5-CH. The y-intercept of this linear portion of the relation defines Vi, (μl/g), the initial volume of distribution in brain at t = 0, which is the functional volume per unit brain mass of a soluble compound that exchanges rapidly and reversibly with plasma.[68] Vi consists of the vascular space (Vv) and any residual space after accounting for Vv and usually represents vascular binding (Vr). Since we correct each ^125I/^14C-IRA delta B/S for vascular space, our y-intercept values likely represent vascular binding. For DA5-CH, there appeared to be rapid, early transport that would indicate a Vr equal to 0. Therefore, using Vr equal to 0, we calculated an estimate of this new Ki and refer to it throughout the manuscript as Model 2.

CC[C@H](C)[C@H](NC(=O)[C@H](CC(C)C)NC(=O)[C@H](Cc1c[nH]c2ccccc12)NC(=O)[C@H](CCC(N)=O)NC(=O)[C@@H](NC(=O)[C@H](Cc1ccccc1)NC(=O)[C@H](C)NC(=O)[C@H](CCCCNC(=O)COCCOCCNC(=O)COCCOCCNC(=O)CC[C@H](NC(=O)CCCCCCCCCCCCCCCCCCC(=O)O)C(=O)O)NC(=O)[C@H](CCC(N)=O)NC(=O)[C@H](C)NC(=O)[C@@H](NC(=O)[C@H](CCCCN)NC(=O)[C@H](CC(=O)O)NC(=O)[C@H](CC(C)C)NC(=O)C(C)(C)NC(=O)[C@@H](NC(=O)[C@H](CO)NC(=O)[C@H](Cc1ccc(O)cc1)NC(=O)[C@H](CC(=O)O)NC(=O)[C@H](CO)NC(=O)[C@@H](NC(=O)[C@H](Cc1ccccc1)NC(=O)[C@@H](NC(=O)CNC(=O)[C@H](CCC(=O)O)NC(=O)C(C)(C)NC(=O)[C@@H](N)Cc1ccc(O)cc1)[C@@H](C)O)[C@@H](C)O)[C@@H](C)CC)[C@@H](C)CC)C(C)C)C(=O)N[C@@H](C)C(=O)NCC(=O)NCC(=O)N1CCC[C@H]1C(=O)N[C@@H](CO)C(=O)N[C@@H](CO)C(=O)NCC(=O)N[C@@H](C)C(=O)N1CCC[C@H]1C(=O)N1CCC[C@H]1C(=O)N1CCC[C@H]1C(=O)N[C@@H](CO)C(N)=O [Tirzepatide]
Whole Brain delta brain/serum ratio, Without unlabeled IRA [1]: -0.16 ± 0.13 µL/g | Brain influx within 1 h of iv injection (detection) [2]: did not detect brain influx
